Measurements: article PMC5537869, “Role of Zucchini and Its Distinctive Components in the Modulation of Degenerative Processes: Genotoxicity, Anti-Genotoxicity, Cytotoxicity and Apoptotic Effects” (Nutrients, 2017)
Several values for one entry are separate records, joined by “and”; a condition that tells them apart may be missing. Equal entries are not always repeated.

Experiments:
[1] = system: normal ocular cells (uveal melanocytes, retinal pigment epithelial cells, and scleral fibroblasts); set-up: method as in PMID 24223611; conditions: highest level tested 300 μM; cited from earlier work
[2] = system: Drosophila melanogaster transheterozygous larvae; experiment: Genotoxicity (single treatment), Drosophila wing spot test (SMART); format: in vivo; set-up: key to Mann-Whitney Test: n.s.: non-significant; conditions: single treatment; for Mann-Whitney Test: vs negative control
Procedure: (§1) The principles and basic procedures for the Drosophila wing spot test have been described by Graf et al., and in previous works of our group. Two strains of flies carrying wing genetic markers on the left arm of chromosome 3: multiple wing […] used. The transheterozygous larvae were obtained by crossing […] (Third Multiple 3), Bd^S(Beaded […]) virgin females. Hybrid eggs derived from crossing optimally fertile flies were collected over an 8 h period. […] Concurrent negative controls with the solvent alone (water) and positive controls with hydrogen peroxide (120 mM) were also run. Anti-genotoxicity tests were carried out by mixing the mutagen (hydrogen peroxide, 120 mM) with the compounds solution. After emergence, adult flies were collected from the treatment vials and stored in 70% ethanol. The wings of the flies were removed under a stereomicroscope using a pair of entomological tweezers, similar number of males and females-wings were mounted in Faure's solution on microscope slides and inspected, under 400× magnification, for the presence of clones of cells. The mutant clones were classified into three types: […] The appearance of twin spots indicated the recombinogenic activity of the chemotherapeutic agent (Figure 1). The frequencies of spots per fly of treated series were compared with its corresponding negative control series (water) to analyze Somatic Mutation and Recombination Test (SMART) data. For maximum power, statistical analyses were done exclusively for the total number of spots recovered. The non-parametric U test of Mann, Whitney and Wilcoxon was used to avoid weak positive and inconclusive results on SMART and to achieve a well-defined statistical diagnosis whether a given treatment should be regarded as genotoxic or not. The inhibition percentages (IP) were calculated using the total spots per wing with the following formula [16, 36]: IP = ((Genotoxine alone - Genotoxine plus active compound)/Genotoxine alone) × 100

HL60 cells [3] = experiment: Nucleosomal DNA fragmentation assay; format: cell-based, human; conditions: HL60, 5 h, same concentrations as in the cytotoxicity assay, agarose gel
Procedure: The HL60 tumoral cell line was used with the aim of analyse the apoptotic induction. […] A non-treated cells control was included for each experiment. For DNA fragmentation, treated cells were collected, were centrifuged at 4000 rpm for 5 min and washed with PBS. […] The agarose gels were run at 50 V for 90 min in TBE (Tris/Borate/EDTA) buffer and then observed and photographed under UV light. For Annexin V-PI test, Annexin V Apoptosis Detection Kit ([…] Biotech S.L., Cordoba, Spain) was used. Briefly, cells were resuspended in 100 μL of Binding buffer solution 1× and subsequently, 5 μL AnnexinV-FITC (Fluorescein isothiocyanate) and 10 μL propidium iodide were added, and samples were incubated for 10 min at room temperature in darkness, and flow cytometry (Beckman Coulter Inc., Brea, CA, USA) was then used to analyze the rate of apoptosis.

[4] = system: Drosophila melanogaster transheterozygous larvae; experiment: Anti-genotoxicity (combined treatment with hydrogen peroxide 120 mM), Drosophila wing spot test (SMART); format: in vivo; set-up: key to Mann-Whitney Test: n.s.: non-significant; conditions: combined treatment with H2O2 120 mM; for Mann-Whitney Test: vs negative control
Procedure: as §1

HL60 cells [5] = experiment: Cytotoxicity assay, trypan blue exclusion; format: cell-based, human; conditions: HL60, 72 h, trypan blue exclusion, at the tested concentrations
Procedure: Therefore, all the cells that exclude the dye are viable. Non-viable cells stained purple-violet, whereas viable ones remained unstained. Trypan blue was added to cell cultures at a 1:1 ratio, and 20 μL of cell suspension was loaded into a Neubauer chamber. The cells were counted under an inverted microscope at 100× magnification. […] Curves are expressed as survival percentage with respect to controls growing at 72 h. All data represent the average of at least three independent experiments.

C918 cell line = system: C918 cell line; set-up: method as in PMID 24223611; conditions: C918 human uveal melanoma cell line; read-out: IC50 (cell viability); cited from earlier work
SP6.5 cell line = system: SP6.5 cell line; set-up: method as in PMID 24223611; conditions: SP6.5 human uveal melanoma cell line; read-out: IC50 (cell viability); cited from earlier work

CC1=C(/C=C/C(C)=C/C=C/C(C)=C/C=C/C=C(C)/C=C/C=C(C)/C=C/C2=C(C)C[C@@H](O)CC2(C)C)C(C)(C)C[C@H](O)C1 [Zeaxanthin, zeaxanthin]
effect on viability of normal ocular cells [1]: did not affect the viability | Large Spots (>2 Cells) m = 5 ([2]; 0.0001 μM): 0.00 (0) clones per wing | Small Spots (1–2 Cells) m = 2 ([2]; 0.0001 μM): 0.05 (2) clones per wing | Total Spots m = 2 ([2]; 0.0001 μM): 0.05 (2) clones per wing | Twin Spots m = 5 ([2]; 0.0001 μM): 0.00 (0) clones per wing | Mann-Whitney Test ([2]; 0.0001 μM): n.s. | Large Spots (>2 Cells) m = 5 ([2]; 0.105 μM): 0.03 (1) clones per wing | Small Spots (1–2 Cells) m = 2 ([2]; 0.105 μM): 0.10 (4) clones per wing | Total Spots m = 2 ([2]; 0.105 μM): 0.15 clones per wing and 0.15 (6) clones per wing | Twin Spots m = 5 ([2]; 0.105 μM): 0.03 (1) clones per wing | Mann-Whitney Test ([2]; 0.105 μM): n.s. | internucleosomal DNA fragmentation ladder pattern (HL60 cells [3]): did not show any internucleosomal fragmentation ladder pattern | Large Spots (>2 Cells) m = 5 ([4]; 0.0001 μM): 0.00 (0) clones per wing | Small Spots (1–2 Cells) m = 2 ([4]; 0.0001 μM): 0.03 (1) clones per wing | Total Spots m = 2 ([4]; 0.0001 μM): 0.05 (2) clones per wing | Twin Spots m = 5 ([4]; 0.0001 μM): 0.03 (1) clones per wing | Mann-Whitney Test ([4]; 0.0001 μM): n.s. | Large Spots (>2 Cells) m = 5 ([4]; 0.105 μM): 0.00 (0) clones per wing | Small Spots (1–2 Cells) m = 2 ([4]; 0.105 μM): 0.07 (2) clones per wing | Total Spots m = 2 ([4]; 0.105 μM): 0.07 (2) clones per wing | Twin Spots m = 5 ([4]; 0.105 μM): 0.00 (0) clones per wing | Mann-Whitney Test ([4]; 0.105 μM): n.s. | cytotoxic effect (tumoral viability) (HL60 cells [5]): slight cytotoxic activities | IC50 (C918 cell line): 28.7 µM | IC50 (SP6.5 cell line): 40.8 µM
